These results are taken from patent publication US10766902B2, “Wee-1 inhibiting pyrazolopyrimidinone compounds” (ALMAC DISCOVERY LIMITED, priority 2016, dated 2020).

Read-outs that look alike come from different tables or passages of the source.

The target in experiment [1] is Wee-1 kinase (Homo sapiens (Human), UniProt P30291). Briefly: Measurement of Wee-1 kinase activity (ADP-Glo luminescence). The experiment is classed as biochemical. In short, it runs like this:
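Activated Wee-1 preincubated 30 min at RT with compound in Tris/MgCl2 buffer with BSA and DTT, then reacted 1 h at RT with poly(Lys,Tyr 4:1) (2.0 μg/mL) and 30 μM ATP as added aliquot. ADP formed measured by ADP-Glo luminescence; IC50 by non-linear regression of % inhibition.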
A general note: ADP-Glo turns the ADP formed in a reaction into a luminescent signal.

Experiment [2] has as its system phosphorylation of Cdc2 at Tyr15. Briefly: ELISA for phosphorylation of Cdc2 at Tyr15 in HT-29 / HCT-116 cells. It counts as cell-based. Particulars: Homo sapiens. On the procedure:
Method 2: Determining the Effect of Compounds on the Phosphorylation of Cdc2 at Tyr15
The colorectal cancer cell lines HT-29 and HCT-116 were purchased from the ATCC and routinely maintained in McCoy's Medium (Invitrogen) supplemented with 10% Foetal Calf Serum.
The cells were trypsinised from their growing vessel and counted, 100 μL of cell suspension containing 6000 cells was pipetted into black 96 well Co-star plates and incubated overnight to allow adherence to the surface at a temperature of 37° C. and an atmosphere of 5% CO2. Test compounds were formulated in DMSO and diluted in foetal calf serum supplemented medium. Incubating medium was removed by aspiration and diluted drug supplemented medium added to each well.
The plate was returned to the incubator for an additional eight hours at 37° C. and an atmosphere of 5% CO2. Post incubation, the drug supplemented medium was aspirated from each well and the cells were washed once in ice-cold phosphate buffered saline (PBS). 100 μL of cell lysis buffer (Cell Signalling Technologies #9803) containing 20 mM Tris, 150 mM NaCl, 1 mM EDTA, 1 mM EGTA, 1% Triton-X100, 2.5 mM sodium pyrophosphate, 1 mM glycerophosphate, 1 mM Na3VO4 and 1 μg/mL leupeptin was added to each well of the 96 well plate and incubated at 4° C. for 30 min. The samples on the plate were snap frozen at −80° C. until required. Immediately before the continuation of the assay, the sample plate was thawed and centrifuged at 4° C. for 10 min and the supernatant transferred to secondary tubes or 96 well plate.
Cell supernatant was mixed in a ratio of 1:1 with sample dilutent buffer and vortexed for one minute. 100 μL of diluted sample was pipetted into pre-coated plates containing a rabbit polyclonal antibody for phospho-cdc2 (Tyr15) (Cell Signalling Technologies PathScan kit #7176). The plate was sealed and incubated overnight at 4° C.
The plate seal was removed and the well contents aspirated, followed by 3×5 min washes with 200 μL of diluted wash buffer. Between each wash the plate was tapped firmly onto blotting paper to ensure the removal of all kit solution. 100 μL of kit detection antibody was added to each well and the plate re-sealed and incubated at 37° C. for 1 h. Post incubation the plate was washed and processed in a similar manner to that previously described.
100 μL of horseradish peroxidise-linked secondary antibody was added to each test well, the plate sealed and incubated for thirty minutes at 37° C. Post incubation, the plate was washed as previously stated, followed by the addition of 100 μL of 3,3′,5,5′ tetramethylbenzidine (TMB reagent). The plate was sealed and incubated at RT for 30 min.
100 μL of stop solution was added to each well and the underside of the plate wiped with a lint-free tissue, prior to spectrophotometric determination. Absorbance from each well was read at 450 nm within 30 min of the addition of the stop solution.
The percentage of phospho-cdc2 was calculated compared to DMSO control and plotted versus the concentration of inhibitor using GraphPad Prism. Data was fitted using non-linear regression analysis and IC50 values generated.
On the technique in general: ELISA stands for enzyme-linked immunosorbent assay.

Setting [3] is: 8 h, Table 2, colorectal cancer cells, eight hours incubation, read-out: ELISA p-CDC2 EC50.

Chain of Wee-1 kinase (P30291 whole entry): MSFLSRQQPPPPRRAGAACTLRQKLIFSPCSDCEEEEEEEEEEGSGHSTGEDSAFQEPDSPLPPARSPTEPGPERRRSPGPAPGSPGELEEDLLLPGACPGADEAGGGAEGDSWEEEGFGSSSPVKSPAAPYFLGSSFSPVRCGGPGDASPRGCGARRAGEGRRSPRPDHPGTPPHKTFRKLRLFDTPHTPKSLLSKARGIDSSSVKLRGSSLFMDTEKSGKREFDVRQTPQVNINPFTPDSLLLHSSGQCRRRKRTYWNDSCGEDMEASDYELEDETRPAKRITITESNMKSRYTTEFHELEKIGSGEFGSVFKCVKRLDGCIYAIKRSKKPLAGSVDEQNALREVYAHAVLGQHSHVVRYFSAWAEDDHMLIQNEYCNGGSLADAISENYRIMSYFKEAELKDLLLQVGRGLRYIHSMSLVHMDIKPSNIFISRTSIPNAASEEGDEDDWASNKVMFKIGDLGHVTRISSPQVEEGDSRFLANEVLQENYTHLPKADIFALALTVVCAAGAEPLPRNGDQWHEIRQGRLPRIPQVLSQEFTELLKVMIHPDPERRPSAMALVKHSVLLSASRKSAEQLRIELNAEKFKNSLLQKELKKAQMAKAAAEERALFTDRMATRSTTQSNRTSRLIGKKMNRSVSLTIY

As for `C=CCn1c(=O)c2cnc(Nc3ccc(N4CCN(C(C)C)CC4)cc3)nc2n1-c1cccc(N=S(C)(C)=O)n1` [Example 7, 1-(6-{[Dimethyl(oxo)-λ^6-sulfanylidene]amino}pyridine-2-yl)-2-(prop-2-en-1-yl)-6-({4-[4-(propan-2-yl)piperazin-1-yl]phenyl}amino)-1H,2H,3H-pyrazolo[3,4-d]pyrimidin-3-one], in experiment [1] (read-out: Wee1 IC50), the IC50 is 0.7 nM. Also, the EC50 in experiment [2] (setting [3]) turned out to be 9 nM.

With `C=CCn1c(=O)c2cnc(Nc3ccc(N4CCNCC4)c(Cl)c3)nc2n1-c1cccc(N=S(C)(C)=O)n1` [Example 14, 6-{[3-Chloro-4-(piperazin-1-yl)phenyl]amino}-1-(6-{[dimethyl(oxo)-λ^6-sulfanylidene]amino}pyridine-2-yl)-2-(prop-2-en-1-yl)-1H,2H,3H-pyrazolo[3,4-d]pyrimidin-3-one], the IC50 in experiment [1] (read-out: Wee1 IC50) is 0.8 nM. For the same molecule, in experiment [2] (setting [3]), the EC50 was determined as 5 nM.

`CC(C)n1c(=O)c2cnc(Nc3ccc(N4CCN(C)CC4)cc3)nc2n1-c1cccc(N=S(C)(C)=O)n1` [Example 20, 1-(6-{[Dimethyl(oxo)-λ^6-sulfanylidene]amino}pyridin-2-yl)-6-{[4-(4-methylpiperazin-1-yl)phenyl]amino}-2-(propan-2-yl)-1H,2H,3H-pyrazolo[3,4-d]pyrimidin-3-one]: the IC50 turned out to be 1.4 nM in experiment [1] (Table 6, Present Invention, read-out: Wee-1/nM) and 1.4 nM in experiment [1] (read-out: Wee1 IC50). For the same molecule, the EC50 in experiment [2] (setting [3]) stood at 47 nM; in experiment [2] (Table 6, Present Invention, read-out: ELISA/nM) it was 47 nM.

For `C=CCn1c(=O)c2cnc(Nc3ccc(N4CCOCC4)c(C)c3)nc2n1-c1cccc(N=S(C)(C)=O)n1` [Example 21, 1-(6-{[Dimethyl(oxo)-λ^6-sulfanylidene]amino}pyridin-2-yl)-6-{[3-methyl-4-(morpholin-4-yl)phenyl]amino}-2-(prop-2-en-1-yl)-1H,2H,3H-pyrazolo[3,4-d]pyrimidin-3-one], in experiment [1] (read-out: Wee1 IC50), the IC50 was 0.1 nM. For the same molecule, the EC50 in experiment [2] (setting [3]) worked out at 2 nM.

As to `C=CCn1c(=O)c2cnc(Nc3ccc(N4CCNCC4)c(C)c3)nc2n1-c1cccc(N=S(C)(C)=O)n1` [Example 26, 1-(6-{[Dimethyl(oxo)-λ^6-sulfanylidene]amino}pyridin-2-yl)-6-{[3-methyl-4-(piperazin-1-yl)phenyl]amino}-2-(prop-2-en-1-yl)-1H,2H,3H-pyrazolo[3,4-d]pyrimidin-3-one], the IC50 in experiment [1] (read-out: Wee1 IC50) is 0.4 nM. Also, in experiment [2] (setting [3]), the EC50 worked out at 4 nM.

Regarding `C=CCn1c(=O)c2cnc(Nc3ccc(N(C)C)cc3)nc2n1-c1cccc(N=S(C)(C)=O)n1` [Example 57, 1-(6-{[Dimethyl(oxo)-λ^6-sulfanylidene]amino}pyridin-2-yl)-6-{[4-(dimethylamino)phenyl]amino}-2-(prop-2-en-1-yl)-1H,2H,3H-pyrazolo[3,4-d]pyrimidin-3-one], the IC50 in experiment [1] (Table 7, data obtained as described in the experimental section of the current invention, read-out: Wee-1/nM) was 0.2 nM; in experiment [1] (read-out: Wee1 IC50), 0.2 nM. In experiment [2] (setting [3]), the EC50 was 6 nM.

Turning to `C=CCn1c(=O)c2cnc(Nc3ccc(N4C[C@H]5COC[C@H]5C4)cc3)nc2n1-c1cccc(N=S(C)(C)=O)n1` [Example 67, 6-({4-[(3aR,6aS)-Hexahydro-1H-furo[3,4-c]pyrrol-5-yl]phenyl}amino)-1-(6-{[dimethyl(oxo)-λ^6-sulfanylidene]amino}pyridin-2-yl)-2-(prop-2-en-1-yl)-1H,2H, 3H-pyrazolo[3,4-d]pyrimidin-3-one], the IC50 in experiment [1] (read-out: Wee1 IC50) was found to be 0.1 nM. The EC50 in experiment [2] (setting [3]) amounted to 7 nM.

For the molecule `C=CCn1c(=O)c2cnc(Nc3ccc(N4CCN[C@H](COC)C4)cc3)nc2n1-c1cccc(N=S(C)(C)=O)n1` [Example 76, 1-(6-{[Dimethyl(oxo)-λ^6-sulfanylidene]amino}pyridin-2-yl)-6-({4-[(3S)-3-(methoxymethyl)piperazin-1-yl]phenyl}amino)-2-(prop-2-en-1-yl)-1H,2H, 3H-pyrazolo[3,4-d]pyrimidin-3-one], the IC50 in experiment [1] (read-out: Wee1 IC50) was 0.6 nM. In experiment [2] (setting [3]), the EC50 is 28 nM.

`C=CCn1c(=O)c2cnc(Nc3ccc(C4CCN(C5CCC5)CC4)c(C)c3)nc2n1-c1cccc(N=S(C)(C)=O)n1` [Example 88, 6-{[4-(1-Cyclobutylpiperidin-4-yl)-3-methylphenyl]amino}-1-(6-{[dimethyl(oxo)-λ^6-sulfanylidene]amino}pyridin-2-yl)-2-(prop-2-en-1-yl)-1H,2H,3H-pyrazolo[3,4-d]pyrimidin-3-one]: the IC50 in experiment [1] (read-out: Wee1 IC50) stood at 0.4 nM.

`C=CCn1c(=O)c2cnc(Nc3ccc(N(C)CCOC)cc3)nc2n1-c1cccc(N=S(C)(C)=O)n1` [Example 89, 1-(6-{[Dimethyl(oxo)-λ^6-sulfanylidene]amino}pyridin-2-yl)-6-({4-[(2-methoxyethyl)(methyl)amino]phenyl}amino)-2-(prop-2-en-1-yl)-1H,2H,3H-pyrazolo[3,4-d]pyrimidin-3-one]: the IC50 in experiment [1] (read-out: Wee1 IC50) came to 0.2 nM.

In the case of `C=CCn1c(=O)c2cnc(Nc3ccc(N4CCC4)cc3)nc2n1-c1cccc(N=S(C)(C)=O)n1` [Example 90, 6-{[4-(Azetidin-1-yl)phenyl]amino}-1-(6-{[dimethyl(oxo)-λ^6-sulfanylidene]amino}pyridin-2-yl)-2-(prop-2-en-1-yl)-1H,2H,3H-pyrazolo[3,4-d]pyrimidin-3-one], the IC50 in experiment [1] (read-out: Wee1 IC50) is 0.2 nM.

On to `C=CCn1c(=O)c2cnc(Nc3ccc(N4CCOCC4)cc3)nc2n1-c1cccc(CN=S(C)(C)=O)n1` [Example 91, 1-[6-({[Dimethyl(oxo)-λ^6-sulfanylidene]amino}methyl)pyridin-2-yl]-6-{[4-(morpholin-4-yl)phenyl]amino}-2-(prop-2-en-1-yl)-1H,2H,3H-pyrazolo[3,4-d]pyrimidin-3-one], for which the IC50 in experiment [1] (read-out: Wee1 IC50) came to 22.1 nM.

In the case of `CS(C)(=O)=Nc1cccc(-n2c3nc(Nc4ccc(N5CCOCC5)cc4)ncc3c(=O)n2CC2CC2)n1` [Example 92, 2-(Cyclopropylmethyl)-1-(6-{[dimethyl(oxo)-λ^6-sulfanylidene]amino}pyridin-2-yl)-6-{[4-(morpholin-4-yl)phenyl]amino}-1H,2H,3H-pyrazolo[3,4-d]pyrimidin-3-one], the IC50 in experiment [1] (read-out: Wee1 IC50) stood at 8.8 nM.

With `C#CCn1c(=O)c2cnc(Nc3cnn(C(C)C)c3)nc2n1-c1cccc(N=S(C)(C)=O)n1` [Example 94, 1-(6-((Dimethyl(oxo)-λ^6-sulfaneylidene)amino)pyridin-2-yl)-6-((1-isopropyl-1H-pyrazol-4-yl)amino)-2-(prop-2-yn-1-yl)-1,2-dihydro-3H-pyrazolo[3,4-d]pyrimidin-3-one], the IC50 in experiment [1] (read-out: Wee1 IC50) was determined as 1.2 nM.

Take `C=CCn1cc(Nc2ncc3c(=O)n(CC=C)n(-c4cccc(N=S(C)(C)=O)n4)c3n2)cn1` [Example 95, 2-Allyl-6-((1-allyl-1H-pyrazol-4-yl)amino)-1-(6-((dimethyl(oxo)-λ^6-sulfaneylidene)amino)pyridin-2-yl)-1,2-dihydro-3H-pyrazolo[3,4-d]pyrimidin-3-one]: the IC50 in experiment [1] (read-out: Wee1 IC50) was 0.8 nM.

In the case of `C=CCn1c(=O)c2cnc(Nc3cnn(C4CCCCC4)c3)nc2n1-c1cccc(N=S(C)(C)=O)n1` [Example 96, 2-Allyl-6-((1-cyclohexyl-1H-pyrazol-4-yl)amino)-1-(6-((dimethyl(oxo)-λ^6-sulfaneylidene)amino)pyridin-2-yl)-1,2-dihydro-3H-pyrazolo[3,4-d]pyrimidin-3-one], the IC50 in experiment [1] (read-out: Wee1 IC50) was found to be 0.4 nM.
